Results reported in article PMC11650737, “Developing MYC Degraders Bearing the Von Hippel–Lindau Ligand to Target the “Undruggable” MYC” (ACS Pharmacology & Translational Science, 2024).
Several values for one entry are separate records, joined by “and”; a condition that tells them apart may be missing. Equal entries are not always repeated. Entries after “also recorded” stand apart in the source; their conditions may differ. Where two headings read alike, the source gives them in different places.

Assays:
c-MYC = target: T1, c-MYC (Homo sapiens, UniProt P01106); test: MYC degradation in PC3 cells, Western blot; assay type: cell-based; settings: for MYC degradation (MYC levels by Western blot): 10 μΜ, 24 h
T1 construct: endogenous in cells; host or cells: PC3
Procedure: The ability of novel compounds to induce MYC degradation in the PC3 cell line was evaluated via a Western blot-based assay. […] A PROTAC that effectively degrades bromodomain and extra-terminal (BET) family proteins, with indirect action on MYC levels, BETd-260, was also included in these experiments as a positive control. BETd-260 was tested at a lower concentration (1 μΜ) due to its high potency.[26]
PC3 cells were used for the determination of MYC levels after treatment with the PROTACs under study. Cells (at a density of 250 000 per well) were seeded in 6-well plates for 24 h until 60% confluence. During the 24-h incubation period, cells were treated with the tested compounds (10 μΜ) and BETd-260 (1 μΜ) that was used as a positive control. For rescue experiments, cells were pretreated with the inhibitor MG-132 for 2 h, and then, the medium was removed, followed by the addition of the selected compound. After the 24-h incubation period, a cell lysis protocol was performed. The medium was removed, and the cells were rinsed with cold PBS. Lysis was induced using RIPA lysis buffer (50 mM Tris-HCl at pH 7.5, 150 mM NaCl, 5 mM Na2EDTA, 1 mM EGTA, 0.1% SDS, 1% NP-40, 0.5% sodium deoxycholate, 8 mM sodium fluoride, and 1 mM sodium orthovanadate) and protease inhibitor cocktail (Roche, UK). Total protein concentration in lysate samples was determined via performance of the Bradford assay in bovine serum albumin (BSA). Standard and unknown samples were preformulated in Coomassie blue G-250 assay reagent (Thermo Fisher Scientific, MA, USA), followed by a readout at 595 nm. Separation of the protein isolated from PC3 lysates, respectively (10 μg), with NuPAGE sample reducing agent and NuPAGE LDS sample buffer (Invitrogen, UK), was achieved via SDS-PAGE electrophoresis at 110 V for 2 h, prior to overnight transfer to the polyvinylidene difluoride (PVDF) membrane. The membranes were then blocked in 5% nonfat dry milk in Tris-buffered saline with 0.1% Tween-20 (TBST-T) for 1 h at room temperature.
Detection of MYC in PC3 cells was accomplished via immunoblot of the POI with the indicated monoclonal antibody (Cell Signaling Technology, MA, USA, catalog number #5605) at 1:1000 in TBST at […] overnight. The secondary anti-rabbit peroxidase-conjugate antibody (Cell Signaling Technology, MA, USA, catalog number #7074) was further added at 1:2000 dilution, followed by 1-h incubation at room temperature. Chemiluminescent visualization of the MYC protein bands was performed after the addition of Immobilon Crescendo Western HRP substrate (Sigma-Aldrich, Munich, Germany). For normalization of MYC concentration, GAPDH was labeled using the specific rabbit monoclonal antibody (Cell Signaling Technology, MA, USA, catalog number #5174) at 1:20000 in 5% nonfat dry milk. Protein bands were quantified with the ImageJ software.

PC3 cells [1] = test: Cell viability (MTT) assay, PC3; assay type: cell-based, human; settings: for IC50: read-out: IC50 (antiproliferative effect)
Procedure: (§1) The antiproliferative activity of the synthesized compounds was tested in cell viability assays optimally set up for various cancer cell lines (results are depicted in Table 2, n = 3, average IC50 (μM) ± SD).
(§2) Cells were plated at a density of 5 × 10^3 cells per well on 96-well plates. After 24 h of incubation (37 °C, 5% CO2), the cell medium was removed, and compounds were added at selected concentrations (0.1–100 μM), followed by incubation for 72 h. Control cells were treated with 0.4% DMSO medium to match the conditions in the wells where drugs were added. After 72 h, the medium was removed, and the 3-(4,5-dimethylthiazol-2-yl)-2,5-diphenyltetrazolium bromide (MTT) solution (0.3 mg/mL in PBS) was added to cells for 3 h under no light conditions. The MTT solution was removed, and the formazan crystals were dissolved in 100 μL of DMSO. The optical density was measured at 570 nm with a reference wavelength of 690 nm using an absorbance microplate reader (SpectraMax 190, Molecular Devices, Sunnyvale, CA, USA). The half-maximal inhibitory concentration (IC50) was calculated based on a four-parameter logistic equation, generating a cell viability curve, using GraphPad Prism 6.01 (GraphPad Software, Inc.). Two concentrations of an established drug, Docetaxel (100 nM and 1 nM), were used in each experiment as a positive control. The resulting absorbance values were used instead of IC50 calculation. Each point was the result of three independent experiments performed in triplicate.

A549 cells = test: Cell viability (MTT) assay, A549; assay type: cell-based, human; settings: 72 h
Procedure: as §1
as §2, with “Two concentrations of an established drug, Docetaxel (100 nM and 1 nM), were used in each experiment as a positive control.” left out, “Each point was the result of three independent experiments performed in triplicate.” left out

SKBR3 cells [2] = test: Cell uptake / intracellular concentration by LC-MS/MS, SKBR3; assay type: in vitro ADME, human; settings: SKBR3, 24 h incubation with 10 μM
Procedure: (§3) Therefore, in order to better comprehend the observed activities of our degraders, following incubation of each compound with cells, the intracellular concentrations of the synthesized derivatives were evaluated in different cancer cell lines, as described previously.[28],[29] SKBR3, PC3, or A549 cells were incubated with PROTACs (at a 10 μΜ concentration) for selected time points, respectively. Upon sample treatment, compounds were extracted and analyzed by LC-MS/MS. Table 1 presents the percentage of the molecule that enters the cells after 24 h incubation at the 10 μM concentration. […] The small molecule MYCi361, used as a binding domain component of MYC, was also evaluated in the cell uptake assay (Table 1).
(§4) Cells were plated in 24-well plates at a density of 2 × 10^5 cells/well. 24 h after seeding, cells were incubated with each PROTAC (10 μΜ) for certain time points (1 h, 4 h, 8 h, and 24 h). The incubations were terminated at the selected time points by removing the medium and washing the cells twice with 1 mL cold PBS (1×) in each well in order to remove unbound PROTAC. Subsequently, the cells were lysed by adding a cold solution of ACN:H2O (3:2) and scraping off the cell monolayer. This process was done in two steps: first, 200 μL of ACN:H2O was added, the cells were scraped, and the cell lysate was collected. The second step involved the addition of an extra 100 μL of ACN:H2O, scraping, and collection of the remaining lysate. Samples were subsequently vortexed, sonicated, and centrifuged for 10 min at 13 000 rpm. The supernatants were collected, evaporated for 1 h at 55 °C, and stored at −20 °C until the day of analysis. Samples were then reconstituted in 200 μL of initial mobile phase (100% A), and the intracellular accumulation of PROTACs was determined by LC-MS/MS analysis using Warfarin as a stable internal standard and PROTAC standards for the construction of analytical standard curves.
(§5) The percentage of cell uptake was calculated as follows: [drawing 1]

MYC:MAX complex = test: In vitro MYC-MAX binding assay (GST pull-down); assay type: biochemical; settings: compound 150 μM
Procedure: To assess whether the new degraders affect direct interaction of MYC with MAX, we employed a pull-down approach using recombinant proteins that correspond to the bHLHZ regions of MYC and MAX. GST-MYC, bound to glutathione sepharose beads, was incubated with the pyrazole compounds, followed by incubation with His-MAX. Finally, the complex of GST-MYC/HisMAX was eluted by the addition of excess glutathione, while the amount of the eluted complex was assessed by western blotting using anti-MAX antibodies (Figure 5).
Figure 5 Inhibition of the formation of the MYC:MAX complex by the pyrazole compounds. The indicated compounds (150 μM), or the solvent alone (DMSO, used as a control), were incubated with GST-MYC containing glutathione beads for 10 min at […], followed by incubation with His-MAX. […] The complex of GST-MYC:His-MAX was eluted by incubation of the beads with free glutathione. The amount of the eluted complex was analyzed by western blotting (presented in the inset), using anti-MAX antibodies, while the protein bands were quantified with the ImageJ software. The intensity of the bands is presented in the bar graph. […] Statistics were based on the unpaired two-tailed student’s t-test. Data are shown as mean ± SEM.
MYC–MAX complex formation assays were performed using recombinantly produced GST-MYC and His-MAX proteins, following the glutathione GST pull-down principle (Lentzaris et al., in preparation). In this assay, recombinant GST-MYC bound to glutathione beads was preincubated with the indicated compound or vehicle […]. As a negative control, empty beads, i.e., not loaded with GST-MYC, were used. The formed complex was eluted with glutathione, while the amount of bound MAX (indicating the amount of the generated complex) was assessed by Western blotting using anti-MAX antibodies (Abcam) and quantified based on the image J free software. All assays were carried out at least three independent times.

SKBR3 cells [3] = test: Cell viability (MTT) assay, SKBR3; assay type: cell-based, human
Procedure: as §1, §2

HCT116 cells = system: HCT116 cells; design: method as in PMID 34838332; settings: HCT116 cells ref 13; read-out: GI50 (viability); cited from earlier work
PSN1 cells = system: PSN1 cells; design: method as in PMID 34838332; settings: PSN1 cells ref 13; read-out: GI50 (viability); cited from earlier work
PC3 cells [4] = test: Cell uptake / intracellular concentration by LC-MS/MS, PC3; assay type: in vitro ADME, human; settings: PC3, 24 h incubation with 10 μM
Procedure: as §3, §4, §5

T1 sequence (P01106 whole entry): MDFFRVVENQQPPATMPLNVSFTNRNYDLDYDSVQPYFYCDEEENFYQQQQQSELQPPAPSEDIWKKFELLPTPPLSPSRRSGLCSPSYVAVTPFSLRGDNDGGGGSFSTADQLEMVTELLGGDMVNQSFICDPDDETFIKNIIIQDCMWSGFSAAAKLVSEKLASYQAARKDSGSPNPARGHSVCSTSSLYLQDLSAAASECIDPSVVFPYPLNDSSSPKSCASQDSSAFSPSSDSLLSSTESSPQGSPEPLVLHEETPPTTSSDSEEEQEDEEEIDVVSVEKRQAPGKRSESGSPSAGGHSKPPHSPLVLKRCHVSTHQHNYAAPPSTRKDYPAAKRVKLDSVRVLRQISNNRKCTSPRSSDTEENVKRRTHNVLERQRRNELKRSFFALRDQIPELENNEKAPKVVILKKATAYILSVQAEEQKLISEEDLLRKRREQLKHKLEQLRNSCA

## Cc1ncsc1-c1ccc(CNC(=O)[C@@H]2C[C@@H](O)CN2C(=O)[C@@H](NC(=O)CNC(=O)CCC(=O)NCCCOc2ccc(-c3cc(C(F)(F)F)nn3C)c(O)c2-c2cc(C(F)(F)F)cc(C(F)(F)F)c2)C(C)(C)C)cc1 [CSI95]
c-MYC
  MYC degradation (MYC levels by Western blot): No particular effect
PC3 cells [1]; 72 h
  IC50 (antiproliferative effect): inactive
A549 cells
  IC50 (antiproliferative effect): inactive
SKBR3 cells [2]
  Uptake by cells: 16 ± 5%

## Cn1nc(C(F)(F)F)cc1-c1ccc(OCCCN)c(-c2cc(C(F)(F)F)cc(C(F)(F)F)c2)c1O.O=C(O)C(F)(F)F [CSI118]
MYC:MAX complex
  inhibition of MYC:MAX complex formation (binding of His-MAX to GST-MYC): did not seem to interfere significantly; also recorded: no effect on MYC/MAX dimerization

## Cc1ncsc1-c1ccc(CNC(=O)[C@@H]2C[C@H](O)CN2C(=O)[C@@H](NC(=O)CCCC(=O)NCCCOc2ccc(-c3cc(C(F)(F)F)nn3C)c(O)c2-c2cc(C(F)(F)F)cc(C(F)(F)F)c2)C(C)(C)C)cc1 [CSI212]
c-MYC
  MYC degradation (MYC levels by Western blot): inactive
PC3 cells [1]; 72 h
  IC50 (antiproliferative effect): did not have any antiproliferative effect; also recorded: inactive
SKBR3 cells [3]; 72 h
  IC50 (antiproliferative effect): did not have any antiproliferative effect; also recorded: inactive

## CCc1ccc(/C=C2/SC(=S)NC2=O)cc1 [Compound 10058-F4, reference compound]
PC3 cells [1]; 72 h
  IC50: 23 µM and 25 µM

## CC(C)c1ccc(/C=C2\SC(=O)N(CCCCCCCCNC(=O)c3ccc4c(c3)C(=O)N(C3CCC(=O)NC3=O)C4=O)C2=O)cc1 (stereo not shown) [MDEG-541]
HCT116 cells
  GI50: 14.3 µM
PSN1 cells
  GI50: 10.7 µM

## Cn1nc(C(F)(F)F)cc1-c1ccc(OCc2ccc(Cl)cc2)c(-c2cc(C(F)(F)F)cc(C(F)(F)F)c2)c1O [MYCi361, reference compound]
c-MYC
  concentration range in which MYC was degraded: 5–10 μΜ
PC3 cells [1]; Homo sapiens, PC-3, 72 h
  IC50: 8 ± 1 µM
SKBR3 cells [3]; Homo sapiens, SK-BR-3, 72 h, read-out: IC50 (antiproliferative effect)
  IC50: 11 ± 4 µM
PC3 cells [4]
  Uptake by cells: 28% and 28 ± 5%
SKBR3 cells [2]
  Uptake by cells: 19% and 19 ± 1%
